Where no end group is shown, it is not given here.
Tests used:
Type in all cases: cell-based
[1] = tested on: alveolar type II epithelial cells (T2 cells); experiment: Inhibition of T2 cell adhesion to immobilized pseudomatrix by treatment with polyclonal antibodies for the peptides
Experimental: Each pseudomatrix prepared in Example 13 to which cell adhesion peptide was bound (MBAC-peptide) was diluted in DMEM medium to the concentration of 1-10 μg/ml, poured into a 96-well by 100 μl each, and left still overnight in a CO2 incubator to be adsorbed and immobilized on the wells. Non-adsorbed MBAC-peptides were removed by rinsing well with DMEM medium. Next, 100 μl of antibodies diluted with serum-free DMEM to the concentration of 4-10 μg/ml was poured into a well, incubated for 2-4 hours to let the antibodies bind to the peptides. Normal IgG was used for control groups. Antibodies were removed after the treatment, T2 cells suspended at the concentration of 6×10^5 cells/ml were seeded by 100 μl each. After 1-day serum-free culture, T2 cells were fixed with 100 μl of methanol for 5 minutes, and stained with 50 μl of 0.4% crystal violet for 30 minutes. Excessive staining was washed with water, and the number of adhering cells was counted based on the absorbance of cytoplasm (A595).

[2] = tested on: alveolar type II epithelial cells (T2 cells); experiment: Adhesion of T2 cells to immobilized cell adhesion peptide substrates and inhibition by the same free peptide; details: for Inhibition degree of cell adhesion, Free peptide: T2 cells on immobilized peptide, same free peptide coexistent at 0.25 mg/ml; for Competitive inhibition of cell adhesion by the same free cell adhesion peptide: immobilized by MMAC or MAST, free peptide 0.25 mg/ml
Experimental: All treatments are assumed to be aseptic treatments. First, in the case of cell adhesion proteins, 10 μg/ml of a hydrophobic binding-adsorptive polymer, such as MMAC and MAST, and in the case of peptides, 50 μg/ml of MMAC and MAST is dissolved in ethanol, the solution is filtered and poured by 50 μl each into a 96-well with no surface treatment for cell culture, leave it stand still for a while, and then MMAC etc., are removed and air-drying is conducted. Next, 10-20 μg/ml of cell adhesion protein or 0.25 mg/ml of peptide is dissolved in 0.1 M triethanolamine buffer, a solution of pH 8.8, and the mixture was poured by 50 μl each into a 96-well previously coated with MMAC etc. The solution is reacted overnight while humidifying in an incubator heated at 37° C. After the reaction finishes, the reaction liquid is absorbed, the remaining reaction solution is rinsed out with the medium, and the immobilized preparation of cell adhesion proteins or peptides is prepared. The preparation, as described in the following Examples, can be used for cell cultures as cell adhesion protein or peptide substrates.
T2 cells suspended in the serum-free DMEM medium at the concentration of 6×10^4 cells/100 μl were seeded in the well prepared according to the manner in Example 6, wherein cell adhesion peptides were immobilized, and cultured in a CO2 incubator at 37° C. for 24 hours. Then, in accordance with the manner in Example 7, the cells were fixed with methanol, stained, and the absorbance was measured. Just before seeding the cells, the free peptides, the same kind as the cell adhesion peptides used for immobilization, were also added to the cell suspension, and the absorbance was measured after the culture in the same manner as described above. As to the case wherein FN was applied as a standard material, the measurement was conducted as well.
FIGS. 4 and 5 show the results obtained with the use of wells prepared by using laminin α-chain G-peptides and FIB-1 peptide as cell adhesion peptides, and as a hydrophobic binding-adsorptive polymer, MMAC was used in FIG. 4, and MAST was used in FIG. 5.

[3] = tested on: alveolar type II epithelial cells (T2 cells); experiment: Inhibition of T2 cell adhesion by free peptide different from the immobilized peptide substrate; details: for Inhibition by free peptide of T2 cell adhesion to immobilized AG73: AG73 (etc.) immobilized; for Inhibition by free peptide of T2 cell adhesion to immobilized AG81.2 and AG73T: AG81.2 and AG73T immobilized; for Inhibition by free peptide of T2 cell adhesion to immobilized FIB-1: FIB-1 immobilized
Experimental: Results obtained by adding the free peptides different from the immobilized peptides when T2 cells were cultured on the immobilized peptide prepared according to the method in Example 7, were shown in FIG. 8.
When adding the free peptides that were the same as the immobilized peptides in the culture medium, the both (free and immobilized) peptides compete for syndecan of T2 cells and as a result, the cell adhesion is inhibited (see Example 7). So far, four types of syndecans are genetically known. Whether these syndecans are commonly owned or accommodated by each peptide, overlapping only by some degrees, otherwise mutually exclusive, was examined herein.

[4] = tested on: alveolar type II epithelial cells (T2 cells); experiment: Binding strength (affinity) of immobilized LN peptides to T2 cells relative to immobilized FIB-1 (mixed immobilization, free FIB-1 competition); design: key to Binding strength to T2 cells, Comprehensive evaluation: AA: extremely strongly binding/adhering; A: strongly binding/adhering; B: intermediately binding/adhering (as the same degree as FIB-1 peptide); C: more weakly binding/adhering than FIB-1 peptide; details: for Binding strength to T2 cells, Comprehensive evaluation: classification relative to FIB-1 peptide; for Binding strength to T2 cells, Ratio to FIB-1: inverse of mixing ratio at transitional midpoint, MMAC-coated well
Experimental: Therefore, the amount of FIB-1 peptide was set at 0.25 mg/ml, and AG73 peptide was mixed therewith, while changing its concentration ratio, from 1/1.250 of FIB-1 in an amount which is 0.20 μg/ml, to ½ of FIB-1 in an amount which is 0.125 mg/ml, and the mixture was immobilized on a well wherein a hydrophobic binding-adsorptive polymer MMAC was coated. The amount of cell adhesion in the case where T2 cells were cultured under a serum-free condition for 1 day on the immobilized peptides is shown in FIG. 9, in comparison with the case where the culture was conducted on the immobilized FIB-1, which was set at 100%.
However, in a case that the ratio of FIB-1:AG73 increased to 1:0.02, because T2 cells already transited to be adherent through the immobilized AG73 peptide, free FIB-1 peptide could no longer inhibit the cell adhesion. […] Likewise, with regard to A3G72 and A4G82 peptides, because the mixing ratio at the transitional midpoint=0.1, their binding strength to T2 cells is 10 times as much as that of FIB-1.
The method used in FIGS. 8 and 9 is extremely effective as a convenient method by which a relative order can be measured concerning to the binding strength (affinity) of cell adhesion peptides and the strength of cell adhesion can be considered quantitatively.
In Table 1, the classification is shown based on the results of the affinity (bonding/adhesion strength) between FIB-1 peptide containing RGD amino acid sequence of FN molecule, a binding site to integrin, and T2 cells: laminin α-chain G-domain peptides are classified into class AA, extremely strong binding/adhesion; class A, strong adhesion; class B, adhesion as the same degree as FIB-1; and class C, binding weaker than the described above.

[5] = tested on: alveolar type II epithelial cells (T2 cells); experiment: Inhibition of T2 cell adhesion to immobilized cell adhesion peptide substrates by heparin treatment; details: 24-hour culture; for Inhibition of cell adhesion to immobilized peptide by heparin treatment: 100 μg/ml heparin 2 hours
Experimental: 100 μg/ml of heparin solution was poured into a well prepared according to the method in Example 6, wherein the cell adhesion peptides were immobilized, and the incubation was conducted for 2 hours. The heparin solution was removed after heparin bound to the immobilized cell adhesion peptides, and T2 cell suspension was seeded on the well.
It is theoretically shown that after the cell adhesion peptides first bind to heparin and are covered with heparin, the cell adhesion receptors having heparin-like sugar chain (heparan sulfate) present on the cell surface, in other words, syndecan, a protein that belongs to heparan sulfate proteoglycan, cannot bind to the cell adhesion peptides by using the sugar chain part of the heparan sulfate, thereby the cell adhesion is inhibited.

[6] = tested on: alveolar type II epithelial cells (T2 cells); experiment: Inhibition by free cell adhesion peptides of T2 cell adhesion to coated cell adhesion proteins FN, Col I, LN, VN; details: free peptide 0.25 mg/ml; serum-free, 1 day
Experimental: Commercially available FN, LN and VN, usually used as cell adhesion proteins at cell culture, were coated to wells at the concentrations of 5 μg/ml, 10 μg/ml and 10 μg/ml, respectively. In case of Col I (collagen type I), Col I at the concentration of 100 μg/ml, dissolved in 1 mM HCl, was poured into a well, left stand still for a while, and then the solution was removed and air-drying was conducted, and rinsed with the medium, before use. Next, 6×10^5 cells/ml of alveolar type II epithelial cells (T2 cells) suspended in the serum-free DMEM medium was seeded by 100 μl each on a 96-well to which the extracellular matrix was coated, and cultured in a CO2 incubator at 37° C. for 1 day. After the culture was finished, the cells were fixed with 100 μl of methanol for 5 minutes, and stained for 30 minutes with 50 μl of 0.4% crystal violet. Excessive staining was washed with water, then the number of cells adhered to FN, Col I, LN and VN, which had been coated to the wells, was counted based on the absorbance of cytoplasm (A595).
On the other hand, among amino acid sequences of various LN molecules, the sequences that induce cell adhesion are known to be present. […] Then, the number of cells was counted in accordance with the method described above.

Substance | Cell adhesion ability of immobilized pseudomatrix compared with coated FN ([1]; MBAC-peptide 1-10 μg/ml in DMEM) | Inhibition of cell adhesion by treatment with antibodies for the peptides ([1]; antibodies 4-10 μg/ml, 2-4 hours) | Inhibition degree of cell adhesion, Free peptide [2] | Competitive inhibition of cell adhesion by the same free cell adhesion peptide [2] | Inhibition by free peptide of T2 cell adhesion to immobilized AG73 [3] | Inhibition by free peptide of T2 cell adhesion to immobilized AG81.2 and AG73T [3] | Inhibition by free peptide of T2 cell adhesion to immobilized FIB-1 [3] | Binding strength to T2 cells, Comprehensive evaluation [4] | Binding strength to T2 cells, Ratio to FIB-1 ([4]; FIB-1 0.25 mg/ml) | Inhibition of cell adhesion to immobilized peptide by heparin treatment [5] | Inhibition of adhesion of T2 cells to FN, Col I, LN and VN by free peptide [6] | Mixing ratio at the transitional midpoint ([4]; peptide:FIB-1 co-immobilized, FIB-1 0.25 mg/ml, loss of inhibition by free FIB-1) | Inhibition degree of cell adhesion, Heparin ([5]; immobilized peptide treated with 100 μg/ml heparin 2 hours)
MBAC-AG73T: pseudomatrix: MBAC polymer reacted with AG73T peptide (LQQRRSVLRTKI) | the same level of cell adhesion ability as in the case where FN was coated | specifically inhibited |  |  |  |  |  |  |  |  |  |  | 
VKTEYIKRKAFM |  |  | No | without competitive inhibition | cannot inhibit it | could not competitively inhibit their immobilized peptide, or even if they can, only slightly | could not inhibit | C | <1 | inhibition of adhesion |  |  | 
GPLPSYLQFVGI |  |  |  |  | inhibited the cell adhesion |  | could inhibit | B | <1 |  | inhibited adhesion of T2 cells | about 1 | No
RNRLHLSMLVRP |  |  |  | without competitive inhibition |  |  |  | C |  | inhibition of adhesion |  |  | 
GEKSQFSIRLKT |  |  | No | without competitive inhibition |  |  |  | C |  | inhibition of adhesion |  |  | 
TLQLQEGRLHFM |  |  | No | without competitive inhibition |  |  |  | C |  | inhibition of adhesion |  |  | 
LQQRRSVLRTKI |  |  | No | without competitive inhibition | cannot inhibit it | could not competitively inhibit their immobilized peptide, or even if they can, only slightly | could not inhibit | C |  | inhibition of adhesion |  |  | 
KNRLTIELEVRT |  |  | No | without competitive inhibition |  |  |  | C |  | inhibition of adhesion |  |  | 

Reference: patent US8304238B2, “Cell culture medium and immobilized preparation of cell adhesion protein or peptide” (Nat'l Institute for Environmental Studies, priority 2003, dated 2012)
